Reference: paper PMC12446476 (Nature Communications, 2025)
≈ marks a conversion by molar mass, not a printed value. Where “and” joins values, the source holds several entries; their conditions need not be identical. Identical values can stand only once. Like-named read-outs stand apart in the source and are kept apart here.

Legend:
N. gonorrhoeae [1] = assay: MIC determination, agar dilution (CLSI); assay type: cell-based, Neisseria gonorrhoeae
Procedure, shortened: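 For N. gonorrhoeae, WHO 2024 reference strains served as quality control, only whole doubling-dilution MICs were reported, and isolates were classified by EUCAST v14.0 breakpoints or ECOFF. Time-kill assays followed CLSI in Columbia broth with 1% IsoVitaleX, and viable counts came from plating serial dilutions on GC agar with IsoVitaleX.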

S. aureus = assay: MIC determination for S. aureus, broth dilution; assay type: cell-based; conditions: Staphylococcus aureus, ATCC29213; S. aureus ATCC 29213
[2] = system: intracellular N. gonorrhoeae; assay: Intracellular killing in HeLa229 cells; assay type: cell-based, Neisseria gonorrhoeae; conditions: for reduction of intracellular bacteria: within 24 h; for Colony forming units (CFU) of N. gonorrhoeae internalised in HeLa229 cells, colony count: dilution 0, replicates 1-3, counts 1-2
Procedure: Intracellular killing was assessed within HeLa229 cells (European Collection of Authenticated Cell Cultures, London, UK) that were seeded at ~3 × 10^5 cells/mL and grown to 70–80% confluence in RPMI-glutamine media supplemented with 10% (v/v) heat-inactivated fetal bovine serum (FBS, Gibco, MA, USA). Cells were incubated at 37 °C with 5% CO2 for 24 h, then washed with serum-free RPMI-1640 prior to infection. N. gonorrhoeae was scraped from agar plates and resuspended in Dulbecco’s Phosphate Buffered Saline (DPBS, Sigma-Aldrich), pelleted, then resuspended in RPMI with 2% FBS. Bacterial suspensions were used to infect HeLa229 cells at a multiplicity of infection of 100:1. Plates were briefly centrifuged (500 × g for 5 min), then incubated for one hour. This incubation and all subsequent incubations were performed at 37 °C with 5% CO2. Non-adherent cells were removed by washing with serum-free RPMI, and the remaining extracellular bacteria were killed via resuspension in RPMI-glutamine supplemented with 2% FBS and 200 μg/mL gentamycin and incubation for one hour. […] Azithromycin-treated samples were included for control/comparison. […] Samples were diluted and plated onto chocolate II agar for viable bacteria quantification. Intracellular killing assays were performed at Microbiologics, Kalamazoo, MI, USA, using a method adapted from previous studies[68],[69].

N. gonorrhoeae [3] = assay: In vitro selection of mutants with reduced susceptibility; assay type: cell-based, Neisseria gonorrhoeae
Procedure: N. gonorrhoeae strains were grown overnight on chocolate agar plates, as described above. […] Plates were incubated at 35 ± 2 °C in a humid 5% CO2–enriched atmosphere for 48–72 h.

[4] = Neisseria gonorrhoeae, 100 contemporary clinical N. gonorrhoeae isolates

Cc1c(CN(C)C(=O)/C=C/c2cnc3c(c2)N[C@H](C)[C@H](O)C(=O)N3)oc2ccccc12 [Debio 1453]
MIC (N. gonorrhoeae [1]; Neisseria gonorrhoeae, screening panel N. gonorrhoeae isolate J, read-out: Minimum inhibitory concentration): 0.06 µg/mL (≈ 0.143 µM)
MIC (N. gonorrhoeae [1]; Neisseria gonorrhoeae, screening panel N. gonorrhoeae isolate K, read-out: Minimum inhibitory concentration): 0.125 µg/mL (≈ 0.297 µM)
MIC (N. gonorrhoeae [1]; Neisseria gonorrhoeae, screening panel N. gonorrhoeae isolate L, read-out: Minimum inhibitory concentration): 0.06 µg/mL (≈ 0.143 µM)
MIC (N. gonorrhoeae [1]; Neisseria gonorrhoeae, screening panel N. gonorrhoeae isolate M, read-out: Minimum inhibitory concentration): 0.03 µg/mL (≈ 0.0713 µM)
MIC (N. gonorrhoeae [1]; Neisseria gonorrhoeae, screening panel N. gonorrhoeae isolate N, read-out: Minimum inhibitory concentration): 0.03 µg/mL (≈ 0.0713 µM)
MIC (N. gonorrhoeae [1]; Neisseria gonorrhoeae, two clones of strain 6804 with FabI L257F): 0.25 µg/mL (≈ 0.595 µM)
MIC50 (N. gonorrhoeae [1]; [4]): 0.06 µg/mL (≈ 0.143 µM)
MIC90 (N. gonorrhoeae [1]; [4]): 0.06 µg/mL (≈ 0.143 µM)
NgMIC50 (N. gonorrhoeae [1]; screening panel of 14 N. gonorrhoeae isolates): 0.03 µg/mL
MIC (S. aureus): 8 ng/mL (≈ 0.019 µM)
reduction of intracellular bacteria ([2]; ATCC 49226 in HeLa229 cells): ≥ 3.1 log10CFU/mL
reduction of intracellular bacteria ([2]; WHO X in HeLa229 cells): ≥ 2.8 log10CFU/mL
Colony forming units (CFU) of N. gonorrhoeae internalised in HeLa229 cells, colony count ([2]; isolate ATCC 49226, 3 hr, 2X MIC): 39 CFU and 23 CFU and 37 CFU and 34 CFU and 36 CFU and 40 CFU
Colony forming units (CFU) of N. gonorrhoeae internalised in HeLa229 cells, colony count ([2]; isolate ATCC 49226, 3 hr, 4X MIC): 53 CFU and 63 CFU and 32 CFU and 35 CFU and 51 CFU and 39 CFU
Colony forming units (CFU) of N. gonorrhoeae internalised in HeLa229 cells, colony count ([2]; isolate ATCC 49226, 3 hr, 8X MIC): 26 CFU and 40 CFU and 33 CFU (2×) and 29 CFU and 38 CFU
Colony forming units (CFU) of N. gonorrhoeae internalised in HeLa229 cells, colony count ([2]; isolate ATCC 49226, 6 hr, 2X MIC): 5 CFU
Colony forming units (CFU) of N. gonorrhoeae internalised in HeLa229 cells, colony count ([2]; isolate ATCC 49226, 6 hr, 4X MIC): 5 CFU (2×) and 6 CFU
Colony forming units (CFU) of N. gonorrhoeae internalised in HeLa229 cells, colony count ([2]; isolate ATCC 49226, 6 hr, 8X MIC): 2 CFU and 6 CFU (2×)
Colony forming units (CFU) of N. gonorrhoeae internalised in HeLa229 cells, colony count ([2]; isolate ATCC 49226, 10 hr, 2X MIC): 0 CFU
Colony forming units (CFU) of N. gonorrhoeae internalised in HeLa229 cells, colony count ([2]; isolate ATCC 49226, 10 hr, 4X MIC): 1 CFU (3×) and 0 CFU (3×)
Colony forming units (CFU) of N. gonorrhoeae internalised in HeLa229 cells, colony count ([2]; isolate ATCC 49226, 10 hr, 8X MIC): 0 CFU
Colony forming units (CFU) of N. gonorrhoeae internalised in HeLa229 cells, colony count ([2]; isolate ATCC 49226, 24 hr, 2X MIC): 0 CFU
Colony forming units (CFU) of N. gonorrhoeae internalised in HeLa229 cells, colony count ([2]; isolate ATCC 49226, 24 hr, 4X MIC): 0 CFU
Colony forming units (CFU) of N. gonorrhoeae internalised in HeLa229 cells, colony count ([2]; isolate ATCC 49226, 24 hr, 8X MIC): 0 CFU
Colony forming units (CFU) of N. gonorrhoeae internalised in HeLa229 cells, colony count ([2]; isolate NCTC 13820, 3 hr, 2X MIC): 27 CFU and 24 CFU (2×)
Colony forming units (CFU) of N. gonorrhoeae internalised in HeLa229 cells, colony count ([2]; isolate NCTC 13820, 3 hr, 4X MIC): 25 CFU and 30 CFU and 34 CFU
Colony forming units (CFU) of N. gonorrhoeae internalised in HeLa229 cells, colony count ([2]; isolate NCTC 13820, 3 hr, 8X MIC): 29 CFU (2×) and 25 CFU and 31 CFU
Colony forming units (CFU) of N. gonorrhoeae internalised in HeLa229 cells, colony count ([2]; isolate NCTC 13820, 6 hr, 2X MIC): 6 CFU and 12 CFU
Colony forming units (CFU) of N. gonorrhoeae internalised in HeLa229 cells, colony count ([2]; isolate NCTC 13820, 6 hr, 8X MIC): 5 CFU (2×) and 0 CFU and 11 CFU
Colony forming units (CFU) of N. gonorrhoeae internalised in HeLa229 cells, colony count ([2]; isolate NCTC 13820, 10 hr, 2X MIC): 1 CFU (2×) and 2 CFU and 0 CFU
Colony forming units (CFU) of N. gonorrhoeae internalised in HeLa229 cells, colony count ([2]; isolate NCTC 13820, 10 hr, 4X MIC): 1 CFU (2×) and 2 CFU (3×) and 0 CFU
Colony forming units (CFU) of N. gonorrhoeae internalised in HeLa229 cells, colony count ([2]; isolate NCTC 13820, 10 hr, 8X MIC): 2 CFU and 1 CFU (2×) and 0 CFU (2×)
Colony forming units (CFU) of N. gonorrhoeae internalised in HeLa229 cells, colony count ([2]; isolate NCTC 13820, 24 hr, 2X MIC): 0 CFU
Colony forming units (CFU) of N. gonorrhoeae internalised in HeLa229 cells, colony count ([2]; isolate NCTC 13820, 24 hr, 4X MIC): 0 CFU
Mutants (colonies) (N. gonorrhoeae [3]; 6804, 4x MIC): 2
Mutants (colonies) (N. gonorrhoeae [3]; 6804, 8x MIC): 0
Mutants (colonies) (N. gonorrhoeae [3]; 6804, 16x MIC): 0
Mutants (colonies) (N. gonorrhoeae [3]; 6926, 4x MIC): 1
Mutants (colonies) (N. gonorrhoeae [3]; 6926, 8x MIC): 0
Mutants (colonies) (N. gonorrhoeae [3]; 6926, 16x MIC): 0
Mutants (colonies) (N. gonorrhoeae [3]; ATCC 700825, 16x MIC): 0
Mutants (colonies) (N. gonorrhoeae [3]; WHO Z, 4x MIC): 1
Mutants (colonies) (N. gonorrhoeae [3]; WHO Z, 8x MIC): 0
Mutants (colonies) (N. gonorrhoeae [3]; WHO Z, 16x MIC): 0
